The results in this text go back to patent US11174248B2, “Indazolyl-spiro[2.3]hexane-carbonitrile derivatives as LRRK2 inhibitors, pharmaceutical compositions, and uses thereof” (Merck Sharp & Dohme Corp., priority 2017, dated 2021).

Each structure is given as a SMILES string. pIC50: −log10 of the molar value.

The target of the assay is GST-tagged truncated human mutant G2019S LRRK2 (Homo sapiens (Human), UniProt Q5S007, G2019S). Description: LRRK2 Km ATP LanthaScreen Assay. It is filed as biochemical. Conditions: 134 μM ATP (Km ATP); fluorescein-labeled LRRKtide substrate; mean IC50 values. Here is the method: Unless otherwise noted, all LRRK2 IC50 data presented in tables refers to the LRRK2 Km ATP LanthaScreen™ Assay that is described in the Biological Assay section.
GST-tagged truncated human mutant G2019S LRRK2, sequence (Q5S007 970-2527 G2019S): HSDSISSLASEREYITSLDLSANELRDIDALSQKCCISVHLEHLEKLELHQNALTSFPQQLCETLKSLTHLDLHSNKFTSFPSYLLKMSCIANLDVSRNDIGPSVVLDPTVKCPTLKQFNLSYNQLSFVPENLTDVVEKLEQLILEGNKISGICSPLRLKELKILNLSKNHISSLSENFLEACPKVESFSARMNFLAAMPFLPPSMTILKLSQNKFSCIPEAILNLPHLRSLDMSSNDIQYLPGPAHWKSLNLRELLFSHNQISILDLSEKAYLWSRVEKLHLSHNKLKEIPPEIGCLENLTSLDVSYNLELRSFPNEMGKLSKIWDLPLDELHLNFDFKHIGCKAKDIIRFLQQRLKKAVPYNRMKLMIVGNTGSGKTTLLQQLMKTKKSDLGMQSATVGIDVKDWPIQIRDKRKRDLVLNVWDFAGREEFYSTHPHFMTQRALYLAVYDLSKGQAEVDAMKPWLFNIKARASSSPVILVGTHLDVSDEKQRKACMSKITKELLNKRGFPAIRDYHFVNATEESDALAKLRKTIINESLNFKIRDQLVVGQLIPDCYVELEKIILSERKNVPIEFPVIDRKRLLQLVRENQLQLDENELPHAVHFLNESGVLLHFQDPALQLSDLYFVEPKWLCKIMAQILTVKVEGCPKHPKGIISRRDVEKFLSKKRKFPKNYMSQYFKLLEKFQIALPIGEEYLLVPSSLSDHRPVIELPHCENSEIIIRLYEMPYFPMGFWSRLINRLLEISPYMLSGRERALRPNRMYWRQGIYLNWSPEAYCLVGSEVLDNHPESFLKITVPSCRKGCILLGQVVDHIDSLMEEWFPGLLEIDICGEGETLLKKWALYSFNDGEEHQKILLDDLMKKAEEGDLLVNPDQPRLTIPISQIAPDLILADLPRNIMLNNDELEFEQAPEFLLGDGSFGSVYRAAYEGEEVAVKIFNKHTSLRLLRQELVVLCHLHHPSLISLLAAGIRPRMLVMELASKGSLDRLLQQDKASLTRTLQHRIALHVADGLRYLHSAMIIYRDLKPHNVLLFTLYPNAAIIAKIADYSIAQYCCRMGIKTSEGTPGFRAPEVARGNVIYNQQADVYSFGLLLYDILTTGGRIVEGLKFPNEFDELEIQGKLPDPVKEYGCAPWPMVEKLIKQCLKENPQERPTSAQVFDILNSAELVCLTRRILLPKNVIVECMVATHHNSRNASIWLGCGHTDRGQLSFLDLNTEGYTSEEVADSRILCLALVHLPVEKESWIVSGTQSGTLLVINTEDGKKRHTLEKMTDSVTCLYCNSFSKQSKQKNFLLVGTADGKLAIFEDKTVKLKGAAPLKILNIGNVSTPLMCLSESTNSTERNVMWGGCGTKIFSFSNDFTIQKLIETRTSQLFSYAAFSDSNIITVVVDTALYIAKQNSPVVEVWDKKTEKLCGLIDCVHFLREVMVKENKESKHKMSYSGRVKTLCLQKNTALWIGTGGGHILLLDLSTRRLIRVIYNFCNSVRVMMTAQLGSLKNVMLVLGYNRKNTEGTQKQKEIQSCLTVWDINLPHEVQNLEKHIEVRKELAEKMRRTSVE
Biological Assay: LRRK2 Km ATP LanthaScreen™ Assay
The LRRK2 kinase activity reported herein as IC50 values was determined with LanthaScreen™ technology from Life Technologies Corporation (Carlsbad, Calif.) using GST-tagged truncated human mutant G2019S LRRK2 in the presence of the fluorescein-labeled peptide substrate LRRKtide, also from Life Technologies. The data presented for the Km ATP LanthaScreen™ Assay represents mean IC50 values based on several test results and may have reasonable deviations depending on the specific conditions and reagents used. Assays were performed in the presence of 134 μM ATP (Km ATP). Upon completion, the assay was stopped and phosphorylated substrate detected with a terbium (Tb)-labeled anti-pERM antibody (cat. no. PV4898). The compound dose response was prepared by diluting a 10 mM stock of compound to a maximum concentration of 9.99 μM in 100% dimethylsulfoxide followed by custom fold serial dilution in dimethylsulfoxide nine times. Twenty nanoliters of each dilution was spotted via a Labcyte Echo onto a 384-well black-sided plate (Corning 3575) followed by 15 μl of a 1.25 nM enzyme solution in 1× assay buffer (50 mM Tris pH 8.5, 10 mM MgCl2, 0.01% Brij-35, 1 mM EGTA, 2 mM dithiothreitol, 0.05 mM sodium orthovanadate) Following a 15-minute incubation at room temperature, the kinase reaction was started with the addition of 5 μl of 400 nM fluorescein-labeled LRRKtide peptide substrate and 134 μM ATP solution in 1× assay buffer. The reaction was allowed to progress at ambient temperature for 90 minutes. The reaction was then stopped by the addition of 20 μl of TR-FRET Dilution Buffer (Life Technologies, Carlsbad, Calif.) containing 2 nM Tb-labeled anti-phospho LRRKtide antibody and 10 mM EDTA (Life Technologies, Carlsbad, Calif.). After an incubation of 1 hour at room temperature, the plate was read on an EnVision multimode plate reader (Perkin Elmer, Waltham, Mass.) with an excitation wavelength of 337 nm (Laser) and a reading emission at both 520 and 495 nm. Compound IC50s were interpolated from nonlinear regression best fits of the log of the final compound concentration, plotted as a function of the 520/495-nm emission ratio using Activity base. Abase uses a 4 parameter (4P) logistic fit based on the Levenberg-Marquardt algorithm.
For orientation: Time-resolved FRET reads energy transfer from a long-lived donor to a nearby acceptor.
In turn, `Cc1nc(N2CC[C@@H](C(C)(C)O)C2)cc(-n2ncc3ccc(C4(C#N)CC5(CC5)C4)cc32)n1` [Example 10, (R)-5-(1-(6-(3-(2-hydroxypropan-2-yl)pyrrolidin-1-yl)-2-methylpyrimidin-4-yl)-1H-indazol-6-yl)spiro[2.3]hexane-5-carbonitrile] had a pIC50 of 8.42.
`CC(C)(O)[C@@H]1CCN(c2cc(-n3ncc4ccc(C5(C#N)CC6(CC6)C5)cc43)ncn2)C1` [Example 11, (R)-5-(1-(6-(3-(2-hydroxypropan-2-yl)pyrrolidin-1-yl)pyrimidin-4-yl)-1H-indazol-6-yl)spiro[2.3]hexane-5-carbonitrile] gave a pIC50 of 9.05.
On to `CC(C)(O)C12CC(C1)N(c1cc(-n3ncc4ccc(C5(C#N)CC6(CC6)C5)cc43)ncn1)C2` [Example 12, 5-(1-(6-(4-(2-hydroxypropan-2-yl)-2-azabicyclo[2.1.1]hexan-2-yl)pyrimidin-4-yl)-1H-indazol-6-yl)spiro[2.3]hexane-5-carbonitrile], for which the pIC50 was 8.59.
In turn, `C[C@H]1CN(c2cc(-n3ncc4ccc(C5(C#N)CC6(CC6)C5)cc43)ncn2)CCN1C1COC1` [Example 13, (S)-5-(1-(6-(3-methyl-4-(oxetan-3-yl)piperazin-1-yl)pyrimidin-4-yl)-1H-indazol-6-yl)spiro[2.3]hexane-5-carbonitrile] gave a pIC50 of 9.00.
In turn, `N#CC1(c2ccc3cnn(-c4cc(N5CCO[C@H](CO)C5)ncn4)c3c2)CC2(CC2)C1` [Example 14, (S)-5-(1-(6-(2-(hydroxy-methyl)morpholino)pyrimidin-4-yl)-1H-indazol-6-yl)spiro[2.3]hexane-5-carbonitrile] had a pIC50 of 8.54.
`C[C@@H]1CN(c2cc(-n3ncc4ccc(C5(C#N)CC6(CC6)C5)cc43)ncn2)C[C@H](C)[C@]1(C)O` [Example 17, 5-(1-(6-((3S,4s,5R and 3R,4s,5S)-4-hydroxy-3,4,5-trimethylpiperidin-1-yl)pyrimidin-4-yl)-1H-indazol-6-yl)spiro[2.3]hexane-5-carbonitrile] had a negative logarithm of the IC50 (pIC50) of 8.05.
For `CC(C)(O)C12CC(C1)N(c1cc(-n3ncc4cnc(C5(C#N)CC6(CC6)C5)cc43)ncn1)C2` [Example 18, 5-(1-(6-(4-(2-hydroxypropan-2-yl)-2-azabicyclo[2.1.1]hexan-2-yl)pyrimidin-4-yl)-1H-pyrazolo[4,3-c]pyridin-6-yl)spiro[2.3]hexane-5-carbonitrile], the negative-log IC50 (pIC50) was 7.72.
The value for `CC(C)(O)[C@@H]1CCN(c2cc(-n3ncc4cnc(C5(C#N)CC6(CC6)C5)cc43)ncn2)C1` [Example 19, (R)-5-(1-(6-(3-(2-hydroxypropan-2-yl)pyrrolidin-1-yl)pyrimidin-4-yl)-1H-pyrazolo[4,3-c]pyridin-6-yl)spiro[2.3]hexane-5-carbonitrile] was 7.97; that for `COCc1nc(N2CC3(C(C)(C)O)CC2C3)cc(-n2ncc3ccc(C4(C#N)CC5(CC5)C4)cc32)n1` [Example 20, 5-(1-(6-(4-(2-hydroxypropan-2-yl)-2-azabicyclo[2.1.1]hexan-2-yl)-2-(methoxy-methyl)pyrimidin-4-yl)-1H-indazol-6-yl)spiro[2.3]hexane-5-carbonitrile] was 7.79; that for `COCc1nc(N2CCN(C3COC3)[C@@H](C)C2)cc(-n2ncc3ccc(C4(C#N)CC5(CC5)C4)cc32)n1` [Example 21, (S)-5-(1-(2-(methoxymethyl)-6-(3-methyl-4-(oxetan-3-yl)piperazin-1-yl)pyrimidin-4-yl)-1H-indazol-6-yl)spiro[2.3]hexane-5-carbonitrile] was 7.96.
The value for `CC(C)(O)C1CN(c2cc(-n3ncc4ccc(C5(C#N)CC6(CC6)C5)cc43)ncn2)C1` [Example 24, 5-(1-(6-(3-(2-hydroxypropan-2-yl)azetidin-1-yl)pyrimidin-4-yl)-1H-indazol-6-yl)spiro[2.3]hexane-5-carbonitrile] was 8.59; that for `CC1(O)CN(c2cc(-n3ncc4ccc(C5(C#N)CC6(CC6)C5)cc43)ncn2)C1` [Example 25, 5-(1-(6-(3-hydroxy-3-methylazetidin-1-yl)pyrimidin-4-yl)-1H-indazol-6-yl)spiro[2.3]hexane-5-carbonitrile] was 8.54; that for `COC1(C)CN(c2cc(-n3ncc4ccc(C5(C#N)CC6(CC6)C5)cc43)ncn2)C1` [Example 26, 5-(1-(6-(3-methoxy-3-methylazetidin-1-yl)pyrimidin-4-yl)-1H-indazol-6-yl)spiro[2.3]hexane-5-carbonitrile] was 8.37.
Then `N#CC1(c2ccc3cnn(-c4cc(N5CC(O)(C6CC6)C5)ncn4)c3c2)CC2(CC2)C1` [Example 27, 5-(1-(6-(3-cyclopropyl-3-hydroxyazetidin-1-yl)pyrimidin-4-yl)-1H-indazol-6-yl)spiro[2.3]hexane-5-carbonitrile], with 8.13.
Consider `CN1CCOC2(C1)CN(c1cc(-n3ncc4ccc(C5(C#N)CC6(CC6)C5)cc43)ncn1)C2` [Example 28, 5-(1-(6-(8-methyl-5-oxa-2,8-diazaspiro[3.5]nonan-2-yl)pyrimidin-4-yl)-1H-indazol-6-yl)spiro[2.3]hexane-5-carbonitrile], for which the pIC50 was 8.89.
With `CNc1nc(N2CC3(C(C)(C)O)CC2C3)cc(-n2ncc3ccc(C4(C#N)CC5(CC5)C4)cc32)n1` [Example 29, 5-(1-(6-(4-(2-hydroxypropan-2-yl)-2-azabicyclo[2.1.1]hexan-2-yl)-2-(methylamino)pyrimidin-4-yl)-1H-indazol-6-yl)spiro[2.3]hexane-5-carbonitrile], the pIC50 was 7.78.
Consider `COc1nc(N2CC3(C(C)(C)O)CC2C3)cc(-n2ncc3ccc(C4(C#N)CC5(CC5)C4)cc32)n1` [Example 30, 5-(1-(6-(4-(2-hydroxypropan-2-yl)-2-azabicyclo[2.1.1]hexan-2-yl)-2-methoxypyrimidin-4-yl)-1H-indazol-6-yl)spiro[2.3]hexane-5-carbonitrile], for which the pIC50 was 7.91.
Regarding `C[C@H]1CN(c2cc(-n3ncc4ccc(C5(C#N)CC6(CC6)C5)cc43)ccn2)CCN1C1COC1` [Example 31, (S)-5-(1-(2-(3-methyl-4-(oxetan-3-yl)piperazin-1-yl)pyridin-4-yl)-1H-indazol-6-yl)spiro[2.3]hexane-5-carbonitrile], the pIC50 is 7.95.
Then `N#CC1(c2ccc3cnn(-c4ccnc(N5CC6(CO)CC5C6)c4)c3c2)CC2(CC2)C1` [Example 32, 5-(1-(2-(4-(hydroxymethyl)-2-azabicyclo[2.1.1]hexan-2-yl)pyridin-4-yl)-1H-indazol-6-yl)spiro[2.3]hexane-5-carbonitrile], with 8.00.
`CC1(O)CC2(CN(c3cc(-n4ncc5ccc(C6(C#N)CC7(CC7)C6)cc54)ncn3)C2)C1` (stereo not shown) [Example 33, 5-(1-(6-(6-hydroxy-6-methyl-2-azaspiro[3.3]heptan-2-yl)pyrimidin-4-yl)-1H-indazol-6-yl)spiro[2.3]hexane-5-carbonitrile] showed a pIC50 of 9.00.
The value for `C[C@H]1CN(c2cc(-n3ncc4ccc(C5(C#N)CC6(CC6)C5)cc43)ncn2)CCO1` [Example 42, (S)-5-(1-(6-(2-methyl-morpholino)pyrimidin-4-yl)-1H-indazol-6-yl)spiro[2.3]hexane-5-carbonitrile] was 8.25; that for `CC(C)(O)[C@@H]1CN(c2cc(-n3ncc4ccc(C5(C#N)CC6(CC6)C5)cc43)ncn2)CCO1` [Example 43, (S)-5-(1-(6-(2-(2-hydroxypropan-2-yl)morpholino)pyrimidin-4-yl)-1H-indazol-6-yl)spiro[2.3]hexane-5-carbonitrile] was 9.05.

The pIC50 is the IC50 on a negative log10 scale, so that one unit is a factor of ten. High values mean a low IC50, low ones a high IC50.
